Reference: patent US6368788B1 (priority 1987, dated 2002)
Where two headings read alike, the source gives them in different places. Marks after values point to notes of the source that are not given here.

Experiments:
[1] = Dental caries: toothpaste containing L-Glu-L-Trp; assay type: in vivo, human
Procedure: The use of dental toothpaste containing L-Glu-L-Trp will have the secondary effect of reducing incidence and severity of gingival disease. Patients with odontogenic infections and periapical granulomas can be treated with 100 μg of L-Glu-L-Trp instilled into the foramen at the base of the tooth, or alternatively, L-Glu-L-Trp can be compounded in a filling paste which is packed into the base of the tooth.

T-lymphocyte function = assay: Naval specialists with occupational immunologic impairments; assay type: in vivo, human; conditions: 3 daily intranasal doses of 100 mcg
Procedure: A clinical trial was conducted of 152 naval specialists (aged 20-40 years) with evidence of occupational immunologic impairments resulting from their exposure to radiation and occupational toxins in the Kosomolets nuclear submarine sinking off the coast of […]. L-Glu-L-Trp was evaluated for its possible effects on cellular and/or humoral immunity. Approximately 87% of the servicemen entered into the trial had moderate to severely impaired T-lymphocyte functional activity, (i.e., evidenced by decreased LMIR and blastogenesis with Con-A) and reduced neutrophil phagocytic activity (i.e., 30-40% of normal). Immune parameters were determined before and after a routine 21-24 day rest period, during a normal rest/recuperation and training rotation. Servicemen were divided into two groups, the first (control) group received no treatment, and the second (experimental) group of 88 servicemen received three consecutive daily intranasal doses of 100 mcg L-Glu-L-Trp.

Dengue virus = assay: Dengue Protocol B; design: species or system human; conditions: in vivo
Procedure: Sixty Dengue virus infected patients (60) were entered into the trial; 36 were treated with L-Glu-L-Trp and 24 were treated using conventional therapy (i.e., controls).

[2] = Bronchial asthma (Protocol A); assay type: in vivo, human
Procedure: Sixty five patients (65) with bronchial asthma, including both adults and children, were entered into the trial: 37 patients were treated with L-Glu-L-Trp and 28 (controls) received conventional therapy alone. L-Glu-L-Trp was administered im in a single daily dose of 1 μg/kg on each of 5-10 consecutive days. […] In certain patients it was possible to eliminate the use of prescribed steroids.

Shigella dysenterae = assay: Shigella dysentery; design: species or system human; conditions: in vivo
Excerpt: A total 125 patients infected with Shigella dysentery were examined. Fifty-three patients constituted the control group.

[3] = DTH sensitization to Oxazolone (ear thickness); assay type: in vivo, mice; conditions: for Mean Ear Thickness ± S.D.: challenge day 7, measured at 24 hours
Procedure: Effects of L-Glu-L-Trp treatments on cell mediated immunity were evaluated by testing its effects on induction of a delayed-type hypersensitivity response in two different studies involving sensitization of mice to Oxazolone and guinea pigs to tuberculin.
In the first study L-Glu-L-Trp was administered ip at a dose of 10 μg/kg, or 1000 μg/kg one hour before a sensitizing dose of Oxazolone (0.1 mL of a 5% solution) was applied to the abdominal surface of a mouse. Seven days later skin sensitivity was measured by administering 25 μL of a 2% oxazolone solution to the right mouse ear and a sample of the diluent solution, as a control, to the left ear. Ear thickness was measured at 24 hours using a Dyer Model micrometer.

influenza = conditions: vs control group
Procedure: Sixty-six (66) hospitalized patients between the ages 18-20 years with confirmed influenza infections were admitted into the trial. Of the patients, 12 were determined to be severely infected, and the remaining 54 seriously infected and in need of hospitalization.

Staphylococcus aureus = assay: Survival after acute peritonitis with LD100 dose of antibiotic-resistant Staphylococcus aureus, prophylactic treatment; conditions: for Percentage Survivors: ip prophylactic
[4] = Following Stage 2, Abscess and indurative acne
[5] = Following Stage 2, Chronic abscess pyoderma
[6] = Following Stage 2, Papular-pustular acne

Substance: L-Glu-L-Trp
- Clinical outcome [1]: reduction of caries
- T-lymphocyte function, T4/T8 ratio, granulocyte lysosomal cation proteins (T-lymphocyte function): pronounced increase
- Clinical outcome (Dengue virus): reduction of fever, more rapid reduction of toxic symptoms
- Patients with disappearance of symptoms of food and drug allergies ([2]; in vivo): more than half
- Decrease in the incidence of bronchial asthmatic attacks ([2]; year long follow-up): 4.2 fold
- Clinical outcome (Shigella dysenterae): normalization of fever, reduction of toxemia
- Mean Ear Thickness ± S.D. ([3]; 10 μg/kg ip one hour before Oxazolone sensitization): 17 ± 1 μm
- DTH sensitivity ([3]; 1000 μg dose one hour prior to antigen): increase in DTH sensitivity to oxazolone
- Mean Ear Thickness ± S.D. ([3]; 1000 μg/kg ip one hour before Oxazolone sensitization): 24 ± 1 μm
- Lower incidence of respiratory complications (influenza): 3.5 times
- Blast Transformation, Con-A (Staphylococci; After L-Glu-L-Trp Therapy): 58.3 ± 3.9%
- Blast Transformation, HSA (Staphylococci; After L-Glu-L-Trp Therapy): 84.9 ± 5.5%
- Blast Transformation, PHA (Staphylococci; After L-Glu-L-Trp Therapy): 40.2 ± 3.9%
- Number of Patients with Clinical Result: Improved (Staphylococci; [4]): 1
- Number of Patients with Clinical Result: Recovered (Staphylococci; [4]): 4
- Number of Patients with Clinical Result: Significantly Improved (Staphylococci; [4]): 1
- Number of Patients with Clinical Result: Recovered (Staphylococci; [5]): 5
- Number of Patients with Clinical Result: Significantly Improved (Staphylococci; [5]): 2
- Number of Patients with Clinical Result: Recovered (Staphylococci; Following Stage 2, Chronic furunculitis): 10
- Number of Patients with Clinical Result: Recovered (Staphylococci; Following Stage 2, Chronic relapsing folliculitis gravis): 1
- Number of Patients with Clinical Result: Recovered (Staphylococci; Following Stage 2, Chronic relapsing osteofolliculitis): 3
- Number of Patients with Clinical Result: Significantly Improved (Staphylococci; Following Stage 2, Chronic ulcerative pyoderma): 2
- Number of Patients with Clinical Result: Recovered (Staphylococci; [6]): 4
- Number of Patients with Clinical Result: Significantly Improved (Staphylococci; [6]): 3
- Number of Patients with Clinical Result: Improved (Staphylococci; Following Stage 2, Totals): 1
- Number of Patients with Clinical Result: No Effect (Staphylococci; Following Stage 2, Totals): 0
- Number of Patients with Clinical Result: Recovered (Staphylococci; Following Stage 2, Totals): 27
- Number of Patients with Clinical Result: Significantly Improved (Staphylococci; Following Stage 2, Totals): 8
- Number of Patients with Clinical Result: Worse (Staphylococci; Following Stage 2, Totals): 0
- B-Lymphocytes (Staphylococci; L-Glu-L-Trp Treatment (n = 36)): 0.28 ± 0.04 ×10^9/L
- B-Lymphocytes % Normal Value (Staphylococci; L-Glu-L-Trp Treatment (n = 36)): (57%)
- B-Lymphocytes (%) (Staphylococci; L-Glu-L-Trp Treatment (n = 36)): 12.1 ± 1.5%
- C3 (Staphylococci; L-Glu-L-Trp Treatment (n = 36)): 0.77 ± 0.02 g/L
- C3, % Normal Value (Staphylococci; L-Glu-L-Trp Treatment (n = 36)): (92%)
- Erythrocyte Sed. Rate (Staphylococci; L-Glu-L-Trp Treatment (n = 36)): 1.2 ± 1.4 mm
- IgA (Staphylococci; L-Glu-L-Trp Treatment (n = 36)): 2.40 ± 0.18 g/L
- IgA % Normal Value (Staphylococci; L-Glu-L-Trp Treatment (n = 36)): (126%)
- IgG (Staphylococci; L-Glu-L-Trp Treatment (n = 36)): 15.5 ± 0.73 g/L
- IgG % Normal Value (Staphylococci; L-Glu-L-Trp Treatment (n = 36)): (135%)
- IgM (Staphylococci; L-Glu-L-Trp Treatment (n = 36)): 1.25 ± 0.12 g/L
- IgM % Normal Value (Staphylococci; L-Glu-L-Trp Treatment (n = 36)): (109%)
- Imm. Cmplx. (Staphylococci; L-Glu-L-Trp Treatment (n = 36)): 45.9 ± 4.9 Units
- Leukocytes (Staphylococci; L-Glu-L-Trp Treatment (n = 36)): 7.75 ± 0.33 ×10^9/L
- Leukocytes % Normal Value (Staphylococci; L-Glu-L-Trp Treatment (n = 36)): (115%)
- Lymphocytes (Staphylococci; L-Glu-L-Trp Treatment (n = 36)): 2.41 ± 0.14 ×10^9/L
- Lymphocytes % Normal Value (Staphylococci; L-Glu-L-Trp Treatment (n = 36)): (120%)
- Lymphocytes, % (Staphylococci; L-Glu-L-Trp Treatment (n = 36)): 30.8 ± 1.4%
- Monocytes (Staphylococci; L-Glu-L-Trp Treatment (n = 36)): 0.43 ± 0.04 ×10^9/L
- Monocytes, % (Staphylococci; L-Glu-L-Trp Treatment (n = 36)): 5.65 ± 0.40%
- Monocytes, % Normal Value (Staphylococci; L-Glu-L-Trp Treatment (n = 36)): (78%)
- NK activity (Staphylococci; L-Glu-L-Trp Treatment (n = 36)): 45.18 ± 2.55 % cytotox.
- Neutrophils (Staphylococci; L-Glu-L-Trp Treatment (n = 36)): 4.54 ± 0.25 10^9/L
- Neutrophils, % (Staphylococci; L-Glu-L-Trp Treatment (n = 36)): 59.8 ± 1.5%
- Neutrophils, % Normal Value (Staphylococci; L-Glu-L-Trp Treatment (n = 36)): (103%)
- Phag. Index (Staphylococci; L-Glu-L-Trp Treatment (n = 36)): 5.31 ± 0.20
- Phagocytic Cells (Staphylococci; L-Glu-L-Trp Treatment (n = 36)): 2.36 ± 0.27 ×10^9/L
- Phagocytic Cells, % Normal Value (Staphylococci; L-Glu-L-Trp Treatment (n = 36)): (89%)
- Surface Ig + B-Lym (Staphylococci; L-Glu-L-Trp Treatment (n = 36)): 0.34 ± 0.05 ×10^9/L
- Surface Ig + B-Lym, % (Staphylococci; L-Glu-L-Trp Treatment (n = 36)): 16.9 ± 1.7%
- Surface Ig + B-Lym, % Normal Value (Staphylococci; L-Glu-L-Trp Treatment (n = 36)): (117%)
- T4^+/T8^+ Ratio (Staphylococci; L-Glu-L-Trp Treatment (n = 36)): 1.32 ± 0.11
- T-Lymphocytes (Staphylococci; L-Glu-L-Trp Treatment (n = 36)): 1.68 ± 0.12 ×10^9/L
- T-Lymphocytes % Normal Value (Staphylococci; L-Glu-L-Trp Treatment (n = 36)): (99%)
- T-Lymphocytes (%) (Staphylococci; L-Glu-L-Trp Treatment (n = 36)): 69.3 ± 1.9 %
- T-helper % Normal Value (Staphylococci; L-Glu-L-Trp Treatment (n = 36)): (71%)
- T-helper (OKT4+) (Staphylococci; L-Glu-L-Trp Treatment (n = 36)): 0.46 ± 0.05 ×10^9/L
- T-helper (OKT4+) % (Staphylococci; L-Glu-L-Trp Treatment (n = 36)): 20.3 ± 2.9%
- T-suppressor % Normal Value (Staphylococci; L-Glu-L-Trp Treatment (n = 36)): (95%)
- T-suppressor (OKT8+) (Staphylococci; L-Glu-L-Trp Treatment (n = 36)): 0.39 ± 0.04 ×10^9/L
- T-suppressor (OKT8+) % (Staphylococci; L-Glu-L-Trp Treatment (n = 36)): 17.1 ± 1.9%
- T-lymphocytes, T4+ lymphocytes, T4+/T8+ ratio and NK activity relative to normal healthy volunteers (Staphylococci; after treatment): > 70%
- Patients with considerable (significant) improvement (Staphylococci; combination therapy): 8
- Patients with improvement (Staphylococci; combination therapy): 1
- Patients with clinical (complete) recovery (Staphylococci; combination therapy, 36 patients): 27
- Surface IgG+ lymphocytes (Staphylococci; following Stage 2): 0.19±0.023 ×10^9/L
- Patients with clinically manifested increased antibiotic sensitivity in vivo (Staphylococci; in vivo): 55-75%
- Clinical recovery, papulous pustular acne (Staphylococci; of 7 patients): 4
- Complete clinical recovery, chronic abscessing pyoderma (Staphylococci; of 7 patients): 5
- Clinical recovery, abscessing and indurative acne (Staphylococci; of 10 patients): 6
- Survival by time of single prophylactic ip injection (Staphylococcus aureus; 24 hours before challenge): more surviving animals than if pretreatment was at 1, 48, or 72 hrs
- Percentage Survivors (Staphylococcus aureus; 24 hours, Glu-Trp dose 0.01 μg/kg (alone or + Ampicillin)): 31.5%
- Percentage Survivors (Staphylococcus aureus; 24 hours, Glu-Trp dose 0.1 μg/kg (alone or + Ampicillin)): 33.3%
- Percentage Survivors (Staphylococcus aureus; 24 hours, Glu-Trp dose 1 μg/kg (alone or + Ampicillin)): 50.0* %
- Percentage Survivors (Staphylococcus aureus; 24 hours, Glu-Trp dose 10 μg/kg (alone or + Ampicillin)): 83.3* %
- Percentage Survivors (Staphylococcus aureus; 24 hours, Glu-Trp dose 100 μg/kg (alone or + Ampicillin)): 88.9* %
- Percentage Survivors (Staphylococcus aureus; 24 hours, dose cell empty (line after 100 μg/kg)): 83.3* %
- Percentage Survivors (Staphylococcus aureus; 48 hours, Glu-Trp dose 0.01 μg/kg (alone or + Ampicillin)): 3.7%
- Percentage Survivors (Staphylococcus aureus; 48 hours, Glu-Trp dose 0.1 μg/kg (alone or + Ampicillin)): 0%
- Percentage Survivors (Staphylococcus aureus; 48 hours, Glu-Trp dose 1 μg/kg (alone or + Ampicillin)): 27.8* %
- Percentage Survivors (Staphylococcus aureus; 48 hours, Glu-Trp dose 10 μg/kg (alone or + Ampicillin)): 50.0* %
- Percentage Survivors (Staphylococcus aureus; 48 hours, Glu-Trp dose 100 μg/kg (alone or + Ampicillin)): 61.1* %
- Percentage Survivors (Staphylococcus aureus; 48 hours, dose cell empty (line after 100 μg/kg)): 72.2* %
- Percentage Survivors (Staphylococcus aureus; 72 hours, Glu-Trp dose 0.01 μg/kg (alone or + Ampicillin)): 0%
- Percentage Survivors (Staphylococcus aureus; 72 hours, Glu-Trp dose 0.1 μg/kg (alone or + Ampicillin)): 0%
- Percentage Survivors (Staphylococcus aureus; 72 hours, Glu-Trp dose 1 μg/kg (alone or + Ampicillin)): 5.6%
- Percentage Survivors (Staphylococcus aureus; 72 hours, Glu-Trp dose 10 μg/kg (alone or + Ampicillin)): 33.3* %
- Percentage Survivors (Staphylococcus aureus; 72 hours, Glu-Trp dose 100 μg/kg (alone or + Ampicillin)): 50.0* %
- Percentage Survivors (Staphylococcus aureus; 72 hours, dose cell empty (line after 100 μg/kg)): 55.6* %
- Survival (Staphylococcus aureus; ip or im routes): increased the percentage of animals surviving challenge with a lethal number of Staphylococcus aureus
- Survival, multiple treatment regimen at 72, 48 and 24 hrs (Staphylococcus aureus; single agent or combined therapy): significantly higher (p<0.05) survival than a single treatment dose
